Test results as given in US9884043B2, “RORgammaT inhibitors” (Merck Sharp & Dohme Corp., priority 2011, dated 2018).

target: T1, HIS-tagged RORγ-LBD (Homo sapiens, UniProt P51449); experiment: TR-FRET assay (Protocol B), RORγ-LBD lysate / biotinylated SRC1-2 LXXLL peptide; format: biochemical; details: unpurified RORγ-LBD lysate ~10 nM, SRC1-2 peptide 450 nM
T1 construct: HIS-tagged RORγ-LBD was recombinantly expressed in SF9 cells using a baculovirus expression system; made in house; host or cells: SF9 cells, baculovirus; crude lysate used
T1 sequence (P51449 269-508 limits assumed): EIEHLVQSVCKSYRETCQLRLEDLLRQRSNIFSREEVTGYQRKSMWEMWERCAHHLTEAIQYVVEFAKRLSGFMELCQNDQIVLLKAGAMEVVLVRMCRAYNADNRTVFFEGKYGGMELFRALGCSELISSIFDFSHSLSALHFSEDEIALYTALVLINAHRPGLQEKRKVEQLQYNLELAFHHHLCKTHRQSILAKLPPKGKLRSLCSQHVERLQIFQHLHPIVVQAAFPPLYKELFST
Excerpt: Activation of RORgammaT activity can be measured using e.g. biochemical TR-FRET assay. In such an assay, interaction of cofactor-derived peptides with human RORgammaT-Ligand Binding Domain (LBD) can be measured.
To identify novel antagonists of RORgammaT, an assay was developed which employs the interaction of RORgammaT with its co-activator peptide SRC1_2. […] The assay was run following three slightly different protocols, i.e. Protocol A, Protocol B, and Protocol C, which are described below.
TR-Fret Assay (Protocol B)
HIS-tagged RORγ-LBD was recombinantly expressed in SF9 cells using a baculovirus expression system. The protein was not purified. Cells were lysed and the lysate was used as a source for RORγ-LBD for the assay. A 1:80 dilution of RORγ-LBD lysate in assay buffer (25 mM HEPES pH 7.0, 100 mM NaCl, 0.01% Tween, 0.1% BSA) was prepared and 5 μL was added to each well (RORγ-LBD final concentration ˜10 nM). Control wells received lysate from SF9 cells not expressing RORγ-LBD.
Compounds to be tested were diluted to 100× final test concentration in DMSO and further diluted to 4× final test concentration using assay buffer to provide the test compound mixture. An aliquot (5 μL) of the test compound mixture was added to each well.

Row | SMILES | IC50
1 | O=C(O)c1cccc(-c2nn(C(=O)c3c(Cl)cccc3C(F)(F)F)c3cccnc23)c1 [Example 24AC, 3-(1-(2-chloro-6-(trifluoromethyl)-benzoyl)-1H-pyrazolo[4,3-b]pyridin-3-yl) benzoic acid] | 0.5 to 10 µM
2 | O=C(O)Cc1ccc(-c2nn(C(=O)c3c(Cl)cccc3C(F)(F)F)c3cccnc23)cc1 [Example 24AD, 2-(4-(1-(2-chloro-6-(trifluoromethyl)-benzoyl)-1H-pyrazolo[4,3-b]pyridin-3-yl)phenyl)acetic acid] | 0.5 to 10 µM
3 | O=C(c1c(Cl)cccc1C(F)(F)F)n1nc(-c2ccc(C(O)(C(F)(F)F)C(F)(F)F)cc2)c2ncccc21 [Example 24AE, (2-chloro-6-(trifluoromethyl)-phenyl)(3-(4-(1,1,1,3,3,3-hexafluoro-2-hydroxypropan-2-yl)phenyl)-1H-pyrazolo[4,3-b]pyridin-1-yl)methanone] | 0.5 to 10 µM
4 | COc1cc(-c2nn(C(=O)c3c(Cl)cccc3C(F)(F)F)c3cccnc23)ccc1C(=O)O [Example 24AI, 4-(1-(2-chloro-6-(trifluoromethyl)-benzoyl)-1H-pyrazolo[4,3-b]pyridin-3-yl)-2-methoxybenzoic acid] | 0.05 to 0.5 µM
5 | O=C(O)c1cc(F)c(-c2nn(C(=O)c3c(Cl)cccc3C(F)(F)F)c3cccnc23)cc1Cl [Example 24AJ, 2-chloro-4-(1-(2-chloro-6-(trifluoromethyl)-benzoyl)-1H-pyrazolo[4,3-b]pyridin-3-yl)-5-fluorobenzoic acid] | 0.05 to 0.5 µM
6 | CC(C)c1cc(-c2nn(C(=O)c3c(Cl)cccc3C(F)(F)F)c3ccccc23)ccc1C(=O)O [Example 24AP, 4-(1-(2-chloro-6-(trifluoromethyl)-benzoyl)-1H-indazol-3-yl)-2-isopropylbenzoic acid] | 0.5 to 10 µM
7 | O=C(O)c1ccc(-c2nn(C(=O)c3c(Cl)cccc3C(F)(F)F)c3ccccc23)cc1F [Example 24AQ, sodium 4-(1-(2-chloro-6-(trifluoromethyl)-benzoyl)-1H-indazol-3-yl)-2-fluoro benzoate] | < 0.05 µM
8 | O=C(O)c1ccc(-c2nn(C(=O)c3c(Cl)cccc3C(F)(F)F)c3ccccc23)c(F)c1 [Example 24AR, sodium 4-(1-(2-chloro-6-(trifluoromethyl)-benzoyl)-1H-indazol-3-yl)-3-fluoro benzoate] | < 0.05 µM
9 | COc1cc(F)c2c(-c3ccc(C(=O)O)cc3)nn(C(=O)c3c(Cl)cccc3C(F)(F)F)c2c1 [Example 24AZ, 4-(1-(2-chloro-6-(trifluoromethyl)-benzoyl)-4-fluoro-6-methoxy-1H-indazol-3-yl) benzoic acid] | 0.05 to 0.5 µM
10 | O=C(O)c1ccc(-c2nn(C(=O)c3c(Cl)cccc3C(F)(F)F)c3cc(O)ccc23)c(F)c1 [Example 24BB, 4-(1-(2-chloro-6-(trifluoromethyl)-benzoyl)-6-hydroxy-1H-indazol-3-yl)-3-fluorobenzoic acid] | < 0.05 µM
11 | O=C(O)c1ccc(-c2nn(C(=O)c3c(Cl)cccc3C(F)(F)F)c3cc(O)cc(F)c23)cc1 [Example 24BC, 4-(1-(2-chloro-6-(trifluoromethyl)-benzoyl)-4-fluoro-6-hydroxy-1H-indazol-3-yl)benzoic acid] | 0.5 to 10 µM
12 | O=C(O)c1ccc(-c2nn(C(=O)c3c(Cl)cccc3C(F)(F)F)c3cc(O)cc(F)c23)c(F)c1 [Example 24BD, 4-(1-(2-chloro-6-(trifluoromethyl)-benzoyl)-4-fluoro-6-hydroxy-1H-indazol-3-yl)-3-fluorobenzoic acid] | 0.5 to 10 µM
13 | O=C(O)c1ccc(-c2nn(C(=O)c3c(Cl)cccc3C(F)(F)F)c3cc(CO)ccc23)cc1 [Example 24BE, 4-(1-(2-chloro-6-(trifluoromethyl)-benzoyl)-6-(hydroxymethyl)-1H-indazol-3-yl)benzoic acid] | < 0.05 µM
14 | O=C(O)c1ccc(-c2nn(C(=O)c3c(Cl)cccc3C(F)(F)F)c3cc(CO)ccc23)c(F)c1 [Example 24BF, 4-(1-(2-chloro-6-(trifluoromethyl)-benzoyl)-6-(hydroxymethyl)-1H-indazol-3-yl)-3-fluorobenzoic acid] | < 0.05 µM
15 | O=C(O)c1ccc(-c2nn(C(=O)c3c(Cl)cccc3C(F)(F)F)c3cccnc23)c(F)c1 [Example 24C, sodium 4-(1-(2-chloro-6-(trifluoromethyl)benzoyl)-1H-pyrazolo[4,3-b]pyridin-3-yl)-3-fluorobenzoate] | < 0.05 µM
16 | O=C(c1c(Cl)cccc1C(F)(F)F)n1nc(-c2ccc(C(O)(C(F)(F)F)C(F)(F)F)cc2)c2c(F)cccc21 [Example 24D, (2-chloro-6-(tri-fluoromethyl)-phenyl)(4-fluoro-3-(4-(1,1,1,3,3,3-hexafluoro-2-hydroxypropan-2-yl)phenyl)-1H-indazol-1-yl)methanone] | 0.5 to 10 µM
17 | O=C(O)c1cccc(-c2nn(C(=O)c3c(Cl)cccc3C(F)(F)F)c3cccc(F)c23)c1 [Example 24E, 3-(1-(2-chloro-6-(trifluoromethyl)-benzoyl)-4-fluoro-1H-indazol-3-yl)benzoic acid] | 0.5 to 10 µM
18 | O=C(O)Cc1cccc(-c2nn(C(=O)c3c(Cl)cccc3C(F)(F)F)c3cccc(F)c23)c1 [Example 24F, 2-(3-(1-(2-chloro-6-(trifluoromethyl)-benzoyl)-4-fluoro-1H-indazol-3-yl)phenyl)acetic acid] | 0.5 to 10 µM
19 | O=C(O)Cc1ccc(-c2nn(C(=O)c3c(Cl)cccc3C(F)(F)F)c3cccc(F)c23)cc1 [Example 24G, 2-(4-(1-(2-chloro-6-(trifluoromethyl)-benzoyl)-4-fluoro-1H-indazol-3-yl)phenyl)acetic acid] | 0.5 to 10 µM
20 | NC(=O)c1ccc(-c2nn(C(=O)c3c(Cl)cccc3C(F)(F)F)c3cccc(F)c23)cc1 [Example 24J, 4-(1-(2-chloro-6-(trifluoromethyl)-benzoyl)-4-fluoro-1H-indazol-3-yl)benzamide] | 0.05 to 0.5 µM

Further lines, results first:

Row | IC50 | SMILES
21 | < 0.05 µM | COc1cccc(F)c1C(=O)n1nc(-c2ccc(C(=O)O)cc2F)c2c(F)cccc21 [Example 24AA, 3-fluoro-4-(4-fluoro-1-(2-fluoro-6-methoxybenzoyl)-1H-indazol-3-yl)benzoic acid]
22 | < 0.05 µM | COc1cccc(F)c1C(=O)n1nc(-c2ccc(C(=O)O)cc2)c2c(F)cccc21 [Example 24AB, 4-(4-fluoro-1-(2-fluoro-6-methoxybenzoyl)-1H-indazol-3-yl)benzoic acid]
23 | < 0.05 µM | Cc1cc(C(=O)O)ccc1-c1nn(C(=O)c2c(Cl)cccc2C(F)(F)F)c2cccnc12 [Example 24AF, 4-(1-(2-chloro-6-(trifluoromethyl)-benzoyl)-1H-pyrazolo[4,3-b]pyridin-3-yl)-3-methylbenzoic acid]
24 | < 0.05 µM | O=C(O)c1ccc(-c2nn(C(=O)c3c(Cl)cccc3C(F)(F)F)c3cccnc23)c(Cl)c1 [Example 24AG, 3-chloro-4-(1-(2-chloro-6-(trifluoromethyl)-benzoyl)-1H-pyrazolo[4,3-b]pyridin-3-yl)benzoic acid]
25 | < 0.05 µM | O=C(O)c1ccc(-c2nn(C(=O)c3c(Cl)cccc3C(F)(F)F)c3cccnc23)cc1F [Example 24AH, 4-(1-(2-chloro-6-(trifluoromethyl)-benzoyl)-1H-pyrazolo[4,3-b]pyridin-3-yl)-2-fluorobenzoic acid]
26 | < 0.05 µM | O=C(O)c1cc(F)c(-c2nn(C(=O)c3c(Cl)cccc3C(F)(F)F)c3cccnc23)cc1F [Example 24AK, 4-(1-(2-chloro-6-(trifluoromethyl)-benzoyl)-1H-pyrazolo[4,3-b]pyridin-3-yl)-2,5-difluorobenzoic acid]
27 | < 0.05 µM | COc1cccc(F)c1C(=O)n1nc(-c2ccc(C(=O)O)cc2)c2ncccc21 [Example 24AM, 4-(1-(2-fluoro-6-methoxybenzoyl)-1H-pyrazolo[4,3-b]pyridin-3-yl)benzoic acid]
28 | < 0.05 µM | COc1cccc(F)c1C(=O)n1nc(-c2ccc(C(=O)O)cc2F)c2ncccc21 [Example 24AN, 3-fluoro-4-(1-(2-fluoro-6-methoxybenzoyl)-1H-pyrazolo[4,3-b]pyridin-3-yl)benzoic acid]
29 | < 0.05 µM | O=C(O)c1ccc(-c2nn(C(=O)c3c(Cl)cccc3C(F)(F)F)c3cccc(C(F)(F)F)c23)cc1 [Example 24AO, 4-(1-(2-chloro-6-(trifluoromethyl)-benzoyl)-4-(trifluoromethyl)-1H-indazol-3-yl)benzoic acid]
30 | < 0.05 µM | COc1cccc(F)c1C(=O)n1nc(-c2ccc(C(=O)O)cc2F)c2ccccc21 [Example 24AT, 3-fluoro-4-(1-(2-fluoro-6-methoxybenzoyl)-1H-indazol-3-yl)benzoic acid]
31 | < 0.05 µM | O=C(O)c1ccc(-c2nn(C(=O)c3c(Cl)cccc3C(F)(F)F)c3cc(Br)cc(F)c23)cc1 [Example 24AX, 4-(6-bromo-1-(2-chloro-6-(trifluoromethyl)-benzoyl)-4-fluoro-1H-indazol-3-yl) benzoic acid]
32 | < 0.05 µM | O=C(O)c1ccc(-c2nn(C(=O)c3c(Cl)cccc3C(F)(F)F)c3cc(O)ccc23)cc1 [Example 24BA, 4-(1-(2-chloro-6-(trifluoromethyl)-benzoyl)-6-hydroxy-1H-indazol-3-yl)benzoic acid]
